# Test results: patent publication US20220357341A1, “COMPOSITIONS AND METHODS FOR AN IL-17 TARGET ENGAGEMENT ASSAY WITH SMALL MOLECULE MODULATORS” (Janssen Pharmaceutica NV, priority 2019, published 2022)
# B1: mAb4538 (Janssen Biotech, Inc.) (antibody, human IgG1, lambda, V domains shown)
# VH: QVQLQQSGPGLVKPSQTLSLTCAISGDSVSSSSAAWGWIRQSPSRGLEWLGRISYRSKWYNDYAVSVKSRITINPDTSKNQFSLQLNSVTPEDTAVYYCAREVDSMYYSYFDIWGQGTLVTVSS
# VL: EIVLTQSPATLSLSPGERATLSCRASQNVWAFYLAWYQQKPGQAPRLLIYGASNRATGIPARFSGSGSGTDFTLTISSLEPEDFAVYYCQQYRSTLSLTFGQGTKVEIKG
# notes: also called human mAb4538 antibody
# Target: T1, human IL-17 (interleukin 17A), recombinant, free (not bound to a small molecule modulator) (human, UniProt Q16552 24-155, limits assumed)
# T1 construct: Recombinant IL-17 used as calibrator in the sandwich ELISAs; also called IL-17A; free IL-17
# T1 sequence (Q16552 24-155 limits assumed): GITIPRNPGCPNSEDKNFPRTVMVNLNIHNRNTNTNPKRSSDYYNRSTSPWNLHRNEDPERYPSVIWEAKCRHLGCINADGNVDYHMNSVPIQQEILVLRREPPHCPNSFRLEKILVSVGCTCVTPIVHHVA
# Test: sandwich ELISA: plate coated with capture antibody of DuoSet DY317, IL-17A titrated in 0.1% DMSO vehicle, mAb4538 at 500 ng/mL as detection agent, streptavidin-HRP readout
# Details: not given
# Experimental: (§1) High binding 96-well plates were coated with 100 μL/well of 4 μg/ml capture antibody in PBS overnight at room temperature. Coated plates were washed 6×400 μL/well on plate washer (Zoom HT Microplate Washer) and blocked with 300 μL/well blocker (1% BSA in PBS) at room temperature for 2.5 hours followed by 6×400 μL/well on plate washer.
# Samples were prepared by incubating titrated IL-17 with SM modulators at final concentration of 10 μM. IL-17 levels were measured in ELISA assay by adding 95 μL/well samples to the capture antibody coated plates. Plates were kept at room temperature for 30 minutes and then 5 μL/well of detecting agent were added to a final of 500 ng/mL, kept at room temperature for another 30 minutes, followed by washing 6×400 μL/well on plate washer. […] Reaction was then stopped by addition of 50 μL/well of stop solution and plates were measured in plate reader at 450-540 nm.
# (§2) Optical density (OD) readout from plate reader (Molecular Devices Spectra Max 340fPC) were analyzed with Softmax Pro6.3 and GraphPad Prism, and plotted as dose response curve of OD values vs IL-17 concentrations.
row,Molecule,binding result
1,B1,binds

# Target: T2, IL-17 (Homo sapiens, UniProt Q16552)
# T2 construct: serial dilutions of recombinant IL-17 were prepared in diluent
# T2 sequence (Q16552 24-155): as the sequence (Q16552 24-155 limits assumed) above
# Test: Free IL-17 ELISA: capture antibody of DuoSet ELISA kit DY317 paired with mAb4538 as detection agent, IL-17 titration with 10 μM SM modulator
# Format: binding
# Details: capture antibody of DuoSet ELISA kit DY317, detection agent mAb4538 500 ng/ml, FIGS. 2A-2F
# Experimental: Two-fold and 8-point serial dilutions of recombinant IL-17 were prepared in diluent starting from 1 ng/ml, in duplicate. For testing differentiating property on SM modulators, IL-17 calibration samples were prepared in the presence of 10 μM SM modulators or vehicle control containing 0.1% DMSO. IL-17 samples were incubated for 1 hour at 37° C.
# as §1
# Samples were prepared by incubating titrated IL-17 with SM modulators at final concentration of 10 μM. IL-17 levels were measured in ELISA assay by adding 95 μL/well samples to the capture antibody coated plates. Plates were kept at room temperature for 30 minutes and then 5 μL/well of detecting agent were added to a final of 500 ng/mL, kept at room temperature for another 30 minutes, followed by washing 6×400 μL/well on plate washer. Development of color for measurement was performed by adding streptavidin conjugated horseradish peroxidase at 100 μL/well and incubated for 20 minutes at room temperature in the dark, followed by 6×400 μL/well on plate washer, and then addition of 100 μL/well pf substrate solution, incubated for 20 minutes at room temperature in the dark. Reaction was then stopped by addition of 50 μL/well of stop solution and plates were measured in plate reader at 450-540 nm.
# as §2
row,Molecule,detection of free IL-17 versus SM modulator-bound IL-17 (OD vs IL-17 concentration)
1,C[C@H]1NC(=O)[C@@H](Cc2ccc(NC(=O)[C@H](Cc3ccccc3Cl)NC(=O)Cc3ccc(F)cc3)cc2)NC(=O)CC2(CCCC2)CC(=O)N[C@H](C(=O)O)CCCCNC1=O [Compound #3],"detection of free IL-17, but not modulator-bound IL-17"
2,C[C@H]1NC(=O)[C@@H](Cc2ccc(NC(=O)[C@H](Cc3ccccc3Cl)NC(=O)Cc3ccc(CO)cc3)cc2)NC(=O)CC2(CCCC2)CC(=O)NCCCCCNC1=O [Compound #4],"detection of free IL-17, but not modulator-bound IL-17"
3,O=C(CC1(CC(=O)N2CCCC2)CCCC1)NCCc1ccc(NC(=O)[C@H](Cc2ccccc2Cl)NC(=O)C(F)(F)c2ccccc2)cc1 [Compound #6],"detection of free IL-17, but not modulator-bound IL-17"
4,NC(=O)CC[C@H]1NC(=O)[C@@H](Cc2ccc(NC(=O)[C@H](Cc3ccccc3Cl)NC(=O)Cc3ccc(F)cc3)cc2)NC(=O)CC2(CCCC2)CC(=O)NCCCCCNC1=O [Compound #2],"detection of free IL-17, but not modulator-bound IL-17"
5,O=C1CNC(=O)[C@@H](Cc2ccc(NC(=O)[C@H](Cc3ccccc3Cl)NC(=O)Cc3ccccc3)cc2)NC(=O)CC2(CCCC2)CC(=O)NCCCCCN1 [Compound #5],"detection of free IL-17, but not modulator-bound IL-17"
